Drawing on publication PMC4897788, “Design, biological evaluation and 3D QSAR studies of novel dioxin-containing pyrazoline derivatives with thiourea skeleton as selective HER-2 inhibitors” (Scientific Reports, 2016), this text covers IC50, GI50 and p-HER-2 levels for one compound.

The target of one data set is EGFR (Homo sapiens, UniProt P00533). Nature of the data set: EGFR autophosphorylation kinase assay (DELFIA/time-resolved fluorometry).
Data set [1] concerns MCF-7 human breast cancer cell line. Nature of the data set: Anti-proliferation assay (MTT), MCF-7. Type of data set: cell-based. As to conditions: MCF7, 24 h.
A further data set concerns the target T1, VEGFR-2 (Homo sapiens, UniProt P35968).
T1 construct: either the phosphorylated or nonphosphorylated form of the VEGFR-2 kinase domain
The experiment in a line: VEGFR-2 inhibitory assay. It counts as biochemical. As to the method: In a 96-well plate, 5 nM/L of either the phosphorylated or nonphosphorylated form of the VEGFR-2 kinase domain was incubated with selected compounds (10-point titration ranging from 4 μM to 0.1 μM), 1 μM/L gastrin substrate, 20 mM/L Tris-HCl, pH 7.5, 10 mM/L MgCl2, 100 mM/L NaCl, 1.5 mM/L EGTA, 1 mM/L DTT, 0.2 mM/L sodium orthovanadate, and 20 μg/mL BSA for 30 min at 25 °C. ATP was added at a final concentration of 11.8 μM and incubated for 60 min at room temperature. Eu-labeled antiphosphotyrosine pT66 antibody (Perkin- Elmer) was then used for detection. The fluorescence at 665 nM was measured with a Wallac Victor plate reader using a time delay of 50 μs. The experiment was performed for three independent times and in triplicate each time.

For a further data set, the system named is p-HER-2. Nature of the data set: Western blot p-HER-2 in MDA-MB-453. It counts as cell-based, human. The following applies: increasing C20 levels. As to the method: After incubation with compound, cells were harvested and washed with PBS, then lysed in lysis buffer (30 mm Tris, pH 7.5, 150 mm NaCl, 1 mm phenylmethylsulfonyl fluoride, 1 mm Na3VO4, 1% Nonidet P-40, 10% glycerol, and phosphatase and protease inhibitors). After centrifugation at 12,000 g for 5 min, the supernatant was collected as total protein. The concentration of the protein was determined by a BCATM protein assay kit (Pierce, Rockford, IL, USA). The protein samples were separated by 10% SDS–PAGE and subsequently electrotransferred onto a polyvinylidene difluoride membrane (Millipore, Bedford, MA, USA). The membrane was blocked with 5% non-fat milk for 2 h at room temperature. The blocked membrane was probed with the indicated primary antibodies overnight at 4 °C, and then incubated with a horse radish peroxidase (HRP)-coupled secondary antibody.

Data set [2] in a line: Cytotoxicity test (MTT), NIH-3T3. Type of data set: cell-based. As to conditions: mouse, NIH-3T3 mouse embryonic fibroblast cells, NIH3T3. On the procedure:
The cytotoxic activity in vitro was measured against mouse fibroblast NIH-3T3 cell using the MTT assay. Cells were cultured in a 96-well plate at a density of 5 × 10^5 cells and different concentrations of compounds were respectively added to each well. The incubation was permitted at 37 °C, 5% CO2 atmosphere for 24 h before the cytotoxicity assessments. 20 μL MTT reagent (4 mg/mL) was added per well 4 h before the end of the incubation. Four hours later, the plate was centrifuged at 1200 rcf for 5 min and the supernatants were removed, each well was added with 200 μL DMSO. The absorbance was measured at a wavelength of 490 nm (OD 490 nm) on an ELISA microplate reader. Three replicate wells were used for each concentration and each assay was measured three times, after which the average of IC50 was calculated. The cytotoxicity of each compound was expressed as the concentration of compound that reduced cell viability to 50% (IC50).

Data set [3] concerns MDA-MB-453 human breast cancer cell line. The experiment in a line: Anti-proliferation assay (MTT), MDA-MB-453. Type of data set: cell-based. As to conditions: 24 h.
The next data set has as its target T2, FAK (Homo sapiens, UniProt Q05397).
T2 construct: human-recombinant full-length FAK
The experiment in a line: FAK inhibitory assay (Kinase-Glo). It counts as biochemical. On the procedure: Selected compounds were tested against FAK. In a typical study, human-recombinant full-length FAK was incubated in kinase buffer containing ATP and the substrate for 4 h at room temperature with or without the presence of the corresponding coumpounds. The final concentration of drug as 100, 30, 10, 3 μg/mL. The remaining ATP in solution was then quantified utilizing the Kinase-Glo-luminescence kit (Promega).

T2 sequence (Q05397 whole entry): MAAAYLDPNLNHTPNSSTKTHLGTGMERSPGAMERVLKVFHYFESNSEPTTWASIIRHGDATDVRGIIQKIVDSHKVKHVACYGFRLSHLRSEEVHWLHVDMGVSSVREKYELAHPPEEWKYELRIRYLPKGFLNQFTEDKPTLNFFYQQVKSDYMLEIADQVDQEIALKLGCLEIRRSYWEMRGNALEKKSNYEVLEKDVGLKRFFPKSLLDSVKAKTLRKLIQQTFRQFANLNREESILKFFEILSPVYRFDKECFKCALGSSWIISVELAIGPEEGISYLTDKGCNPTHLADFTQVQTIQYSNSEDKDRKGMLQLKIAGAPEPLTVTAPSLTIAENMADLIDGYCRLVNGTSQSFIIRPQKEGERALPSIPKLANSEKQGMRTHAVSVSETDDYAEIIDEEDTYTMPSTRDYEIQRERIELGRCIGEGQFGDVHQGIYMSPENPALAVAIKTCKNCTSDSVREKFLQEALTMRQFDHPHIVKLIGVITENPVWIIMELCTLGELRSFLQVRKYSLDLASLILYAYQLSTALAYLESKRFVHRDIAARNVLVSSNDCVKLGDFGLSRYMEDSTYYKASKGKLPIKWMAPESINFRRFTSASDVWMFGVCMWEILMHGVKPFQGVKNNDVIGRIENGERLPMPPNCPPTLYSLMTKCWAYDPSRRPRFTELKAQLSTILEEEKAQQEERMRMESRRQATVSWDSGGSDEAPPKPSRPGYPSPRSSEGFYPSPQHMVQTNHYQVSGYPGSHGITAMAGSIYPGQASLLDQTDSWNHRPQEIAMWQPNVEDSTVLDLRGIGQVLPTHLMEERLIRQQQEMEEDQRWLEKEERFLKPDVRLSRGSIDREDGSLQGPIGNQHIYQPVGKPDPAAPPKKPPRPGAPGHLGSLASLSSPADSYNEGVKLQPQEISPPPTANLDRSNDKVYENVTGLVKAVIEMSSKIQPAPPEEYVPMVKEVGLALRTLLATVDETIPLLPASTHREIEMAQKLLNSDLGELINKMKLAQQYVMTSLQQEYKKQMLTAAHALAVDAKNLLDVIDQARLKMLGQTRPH
T1 sequence (P35968 834-1162 limits assumed, species assumed): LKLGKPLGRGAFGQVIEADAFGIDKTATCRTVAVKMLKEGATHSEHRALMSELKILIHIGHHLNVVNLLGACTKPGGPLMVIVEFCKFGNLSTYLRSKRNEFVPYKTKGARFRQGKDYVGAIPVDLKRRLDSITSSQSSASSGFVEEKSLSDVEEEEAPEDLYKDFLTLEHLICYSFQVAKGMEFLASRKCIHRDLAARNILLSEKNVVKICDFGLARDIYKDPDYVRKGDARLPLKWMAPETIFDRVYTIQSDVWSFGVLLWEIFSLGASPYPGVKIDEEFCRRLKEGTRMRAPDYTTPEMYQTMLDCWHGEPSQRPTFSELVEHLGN
Sequence of EGFR (P00533 669-1210): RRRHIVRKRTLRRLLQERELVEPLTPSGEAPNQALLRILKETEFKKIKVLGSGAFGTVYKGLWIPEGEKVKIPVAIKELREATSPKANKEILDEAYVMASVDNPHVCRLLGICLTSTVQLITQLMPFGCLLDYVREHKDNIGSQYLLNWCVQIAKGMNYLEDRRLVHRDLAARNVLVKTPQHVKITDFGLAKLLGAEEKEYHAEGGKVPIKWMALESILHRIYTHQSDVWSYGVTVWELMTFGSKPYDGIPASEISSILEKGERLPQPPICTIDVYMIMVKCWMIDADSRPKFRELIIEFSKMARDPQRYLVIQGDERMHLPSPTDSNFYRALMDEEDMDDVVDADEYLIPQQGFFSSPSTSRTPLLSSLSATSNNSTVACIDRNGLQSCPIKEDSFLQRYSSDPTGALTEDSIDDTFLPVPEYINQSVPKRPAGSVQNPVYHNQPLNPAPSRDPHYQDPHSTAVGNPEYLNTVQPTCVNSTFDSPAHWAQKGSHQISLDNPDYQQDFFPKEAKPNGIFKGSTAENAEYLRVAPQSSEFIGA

In general, IC50 refers to the point on the concentration scale where inhibition reaches its midpoint. Read a low IC50 as inhibition by little substance. One may read the GI50 as the concentration giving 50% growth inhibition. Read a low GI50 as greater sensitivity of the cells. Regarding `COc1ccc(C2CC(c3ccc4c(c3)OCCO4)=NN2C(N)=S)cc1OC` (stereo not shown) [Compound C20, 3-(2,3-dihydrobenzo[b][1,4]dioxin-6-yl)-5-(3,4-dimethoxyphenyl)-4,5-dihydro-1H-pyrazole-1-carbothioamide], the IC50 against EGFR was 28.6 ± 2.52 µM; against VEGFR-2, 18.4 ± 1.74 µM; against FAK, 56.2 ± 5.48 µM. For the same compound, the results for the GI50 in data set [1] and in data set [3] were 11.9 ± 1.06 µM and 0.15 ± 0.01 µM, respectively. Further, the p-HER-2 levels entry in the data set with p-HER-2 is “gradually trend of decrease”. Also, in data set [2], the GI50 at 24 h came out at 274 ± 3.61 µM.
